This is an account of results in paper PMC6888270 (International Journal of Molecular Sciences, 2019).

Square brackets hold non-standard residues; d marks the D form. Peptide text beside a SMILES is read from it. d(hArg(Et2)) = CCN=C(NCC)NCCCC[C@@H](N)C(=O)O; hArg(Et2) = CCN=C(NCC)NCCCC[C@H](N)C(=O)O; dPhe(4-Cl) = N[C@H](Cc1ccc(Cl)cc1)C(=O)O; d2Nal = N[C@H](Cc1ccc2ccccc2c1)C(=O)O; dCit = NC(=O)NCCC[C@@H](N)C(=O)O; d3Pal = N[C@H](Cc1cccnc1)C(=O)O

For one assay, the system named is β-catenin activation. The experiment in a line: Immunofluorescence of active β-catenin in HEK293/GnRHR cells. The class given is cell-based, human. The following applies: 1 µM GnRH + 1 µM antagonist, 1 h. On the procedure:
In order to evaluate the activation of phospho-proteins and β-catenin by Western blotting and immunofluorescence, 1 × 10^5 HEK293 cells were transiently transfected in a 24-well plate. To this purpose, 500 ng of GnRHR-HA-encoding vector diluted in 2 µL/well Lipofectamine® 2000 Transfection Reagent (Invitrogen) were used, according to the manufacturer’s instructions. Transfected HEK293 cells (HEK293/GnRHR) were cultured for 48 h and maintained over-night in serum-free medium before experiments.
3 × 10^4 HEK293/GnRHR and mock-transfected HEK293 cells (negative control) were plated on gelatine-treated slides. […] As a positive control, cells were treated for 16 h with 100 nM of the selective glycogen synthase kinase 3 (GSK3) inhibitor, CHIR99021 (Sigma-Aldrich), which stabilizes free cytosolic β-catenin [68]. After stimulations, cells were washed in PBS with Ca^2+/Mg^2+ and fixed for 20 min in paraformaldehyde 4%/PBS. Cell monolayers were washed by PBS and permeabilized using 0.1% Triton X-100. Samples were incubated in 4% bovine serum albumin (BSA)/PBS, for 1 h at room temperature (RT), before incubation with a mouse primary antibody targeting β-catenin (#05-665, 1:300 dilution in 4% BSA/PBS; Merck KGaA) overnight at 4 °C. Following washing, cells were then incubated with Cy3-conjugated anti-mouse IgG secondary antibody (#C2181, 1:200 dilution in 4% BSA/PBS; Sigma-Aldrich) for 1 h at RT. Cell monolayers were then stained for 10 min with 4′,6-diamidino-2-phenylindole (DAPI) (Sigma-Aldrich) and washed in PBS before slide treatment by polyvinyl alcohol mounting medium with 1,4-diazabicyclo[2.2.2]octane (DABCO®) (Sigma-Aldrich). Fluorescent signals were detected using the Eclipse Ni-E microscope (Nikon Instruments BV, Amsterdam, The Netherlands).

In assay [1] the target is T1, GnRH receptor (GnRHR) (Homo sapiens, UniProt P30968).
T1 sequence (P30968 1-328): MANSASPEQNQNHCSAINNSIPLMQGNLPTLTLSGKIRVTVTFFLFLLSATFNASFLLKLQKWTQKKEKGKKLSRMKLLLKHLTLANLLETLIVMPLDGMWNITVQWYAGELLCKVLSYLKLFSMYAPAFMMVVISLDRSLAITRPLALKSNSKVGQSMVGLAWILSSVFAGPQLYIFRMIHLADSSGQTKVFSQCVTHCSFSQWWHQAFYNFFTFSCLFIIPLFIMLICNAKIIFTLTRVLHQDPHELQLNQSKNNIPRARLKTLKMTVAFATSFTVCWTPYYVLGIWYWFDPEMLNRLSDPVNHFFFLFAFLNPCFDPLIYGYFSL
The experiment in a line: BRET measurement of GnRH-induced intracellular Ca2+ increase in SH-SY5Y/GnRHR cells. Further details: HA (hemagglutinin); expressed in transfected cells. The following applies: means±SEM, n=6. The class given is cell-based. On the procedure: Different transfection protocols were followed, depending on the endpoint to be measured. For BRET experiments, 3 × 10^4 cells were transiently transfected using vectors expressing the cAMP-CAMYEL or the aequorin-Ca^2+ BRET biosensor-encoding cDNA [59], as appropriate, together with the GnRHR-HA-encoding vector. Transfections were performed in a 96-well plate using the Metafectene PRO reagent (Biontex, München, Germany), as previously described. 100 ng of the receptor-encoding vector + 100 ng of the BRET biosensor-encoding vector were used for co-transfecting HEK293 cells, while SH-SY5Y cells were co-transfected using 200 ng of the receptor-encoding vector + 100 ng of the BRET biosensor-encoding vector. 200 ng of the aequorin-Ca^2+ BRET biosensor-encoding cDNA were used for transfecting LβT2 cells. Each sample was prepared in duplicate, cultured for 48 h and serum-starved over-night before experiments.
To evaluate Ca^2+ increase, cells were incubated in Hank’s Balanced Salt Solution (HBSS) with Ca^2+ and Mg^2+, 1 mM Hepes and 5 µM Coelenterazine H (NanoLight Technologies, a division of Prolume, Ltd., Pinetop, AZ, USA), for 45 minutes, together with Cetrorelix, Ganirelix, Teverelix or vehicle, as appropriate. […] The EC50 was extrapolated from the curve obtained from each cell line. Cells treated by 5 µM of the sarco/endoplasmic reticulum Ca^2+ ATPase enzyme inhibitor, thapsigargin (Tocris Bioscience), served as positive control. Treatment by the vehicle (HBSS) was the negative control and used as a normalizer.
(§1) BRET experiments were performed using a CLARIOstar plate reader equipped by a monocromator (BMG Labtech, Ortenberg, Germany), as previously described.
Data were plotted on graphs as means ± standard error of means (SEM). The kinetics of intracellular Ca^2+ increase was represented by the BRET biosensor emission after background subtraction (vehicle). […] Data distributions were analyzed by D’Agostino and Pearson normality tests and inhibition of intracellular Ca^2+ increase by different concentrations of antagonist were compared using two-way analysis of variance (ANOVA), followed by Bonferroni post-test or Kruskal-Wallis and proper post-test. cAMP accumulation was represented as acceptor:donor emission ratio (induced BRET changes) after basal subtraction (untreated cells). Dose-response curves were obtained by data interpolation using non-linear regressions and normalized as percentage of the maximal response. EC50s, as well as half-maximal inhibitory concentrations (IC50), were compared by t-test or Mann–Whitney U test, while results obtained by Western blotting and qRT-PCR data were compared by one-way ANOVA followed by Bonferroni post-test. Statistical differences were considered as significant for p < 0.05. These analyses were performed using the GraphPad Prism software (GraphPad Software Inc., San Diego, CA, USA).
In general terms: In BRET a luciferase serves as donor, and the signal depends on an acceptor being close.

Assay [2] has as its target T1, GnRH receptor (GnRHR). The experiment in a line: BRET (CAMYEL) measurement of cAMP accumulation in SH-SY5Y/GnRHR cells. It counts as cell-based. Further details: HA (hemagglutinin); expressed in transfected cells. The procedure:
(§2) Different transfection protocols were followed, depending on the endpoint to be measured. For BRET experiments, 3 × 10^4 cells were transiently transfected using vectors expressing the cAMP-CAMYEL or the aequorin-Ca^2+ BRET biosensor-encoding cDNA [59], as appropriate, together with the GnRHR-HA-encoding vector. Transfections were performed in a 96-well plate using the Metafectene PRO reagent (Biontex, München, Germany), as previously described. […]
(§3) cAMP accumulation was measured in cells transiently expressing both the BRET-based cAMP biosensor CAMYEL [64] and GnRHR. […] BRET signals were detected at 475 and 535 nm wavelengths upon the addition of 5 µM Coelenterazine H (NanoLight Technologies). […]
as §1
(§4) Data were plotted on graphs as means ± standard error of means (SEM). […] Data distributions were analyzed by D’Agostino and Pearson normality tests and inhibition of intracellular Ca^2+ increase by different concentrations of antagonist were compared using two-way analysis of variance (ANOVA), followed by Bonferroni post-test or Kruskal-Wallis and proper post-test. cAMP accumulation was represented as acceptor:donor emission ratio (induced BRET changes) after basal subtraction (untreated cells). […]

Assay [3] deals with T1, GnRH receptor (GnRHR). The experiment in a line: BRET (CAMYEL) measurement of cAMP accumulation in HEK293/GnRHR cells. The class given is cell-based. Further details: HA (hemagglutinin); expressed in transfected cells; host or cells: HEK293 (transient co-transfection with BRET biosensor). The procedure: as §2, §3, §1, §4
Where [4] appears, read: 3xEC50 GnRH + 100 pM antagonist.
Where [5] appears, read: 3xEC50 GnRH + 100 nM antagonist.
The mark [6] stands for this setting: read-out: IC50 of inhibition of GnRH-induced cAMP accumulation.

As usually defined, the IC50 is the point on the concentration scale where inhibition reaches its midpoint.

With `CC(=O)N[C@H](Cc1ccc2ccccc2c1)C(=O)N[C@H](Cc1ccc(Cl)cc1)C(=O)N[C@H](Cc1cccnc1)C(=O)N[C@@H](CO)C(=O)N[C@@H](Cc1ccc(O)cc1)C(=O)N[C@H](CCCNC(N)=O)C(=O)N[C@@H](CC(C)C)C(=O)N[C@@H](CCCNC(=N)N)C(=O)N1CCC[C@H]1C(=O)N[C@H](C)C(N)=O` [Cetrorelix] (Ac-[d2Nal][dPhe(4-Cl)][d3Pal]SY[dCit]LRP[dA]-NH2), the “effect on GnRH-induced active β-catenin staining” value in the assay with β-catenin activation is reported as “reduced”. The “AUC of the kinetics of intracellular Ca2+ response” value (“AUC” below) on GnRH receptor (GnRHR) [1] (3xEC50 GnRH + 1 pM antagonist) came out at 105586±22643; at GnRH receptor (GnRHR) [1] (3xEC50 GnRH + 10 pM antagonist), 103653±11947; at GnRH receptor (GnRHR) [1] (setting [4]) it was 118914±31558; on GnRH receptor (GnRHR) [1] (3xEC50 GnRH + 1 nM antagonist), 81413±26479; at GnRH receptor (GnRHR) [1] (3xEC50 GnRH + 10 nM antagonist) it was 81282±26769; on GnRH receptor (GnRHR) [1] (3xEC50 GnRH + 20 nM antagonist), 58382±8030. Further, the “AUC” value on GnRH receptor (GnRHR) [1] (setting [5]) amounted to 46414±15714; at GnRH receptor (GnRHR) [1] (3xEC50 GnRH + 1 uM antagonist), 13355±4381. The half-maximal inhibitory concentration (IC50) at GnRH receptor (GnRHR) [2] was 1.56 ± 2.49 nM; against GnRH receptor (GnRHR) [3], 0.84 nM.
With `CCN=C(NCC)NCCCC[C@H](NC(=O)[C@H](CC(C)C)NC(=O)[C@@H](CCCCNC(=NCC)NCC)NC(=O)[C@H](Cc1ccc(O)cc1)NC(=O)[C@H](CO)NC(=O)[C@@H](Cc1cccnc1)NC(=O)[C@@H](Cc1ccc(Cl)cc1)NC(=O)[C@@H](Cc1ccc2ccccc2c1)NC(C)=O)C(=O)N1CCC[C@H]1C(=O)N[C@H](C)C(N)=O` [Ganirelix] (Ac-[d2Nal][dPhe(4-Cl)][d3Pal]SY[d(hArg(Et2))]L[hArg(Et2)]P[dA]-NH2; N-terminus and C-terminus assumed), the “effect on GnRH-induced active β-catenin staining” value in the assay with β-catenin activation is “reduced”. The “AUC” value at GnRH receptor (GnRHR) [1] (3xEC50 GnRH + 1 pM antagonist) was found to be 93877±14161; on GnRH receptor (GnRHR) [1] (3xEC50 GnRH + 10 pM antagonist), 113983±12281; on GnRH receptor (GnRHR) [1] (setting [4]) it was 116076±24125; on GnRH receptor (GnRHR) [1] (3xEC50 GnRH + 1 nM antagonist) it was 75460±15613; on GnRH receptor (GnRHR) [1] (3xEC50 GnRH + 10 nM antagonist) it was 83904±19566; at GnRH receptor (GnRHR) [1] (3xEC50 GnRH + 20 nM antagonist), 52343±8665. The figures for the “AUC” value at GnRH receptor (GnRHR) [1] (setting [5]) and at GnRH receptor (GnRHR) [1] (3xEC50 GnRH + 1 uM antagonist) were 82720±17902 and 6523±3056, respectively. Moreover, the IC50 amounted to 16.6 ± 3.76 nM at GnRH receptor (GnRHR) [2] (setting [6]) and 0.61 nM on GnRH receptor (GnRHR) [3] (setting [6]).
